{"source": "patent US20080255186A1", "about": "“Pyrazolo[3,4-B]Pyridine Compound, and Its Use as a Pde4 Inhibitor” (priority 2005, published 2008)", "biological_target": "T1, PDE6 (from bovine retina) (Bos taurus, UniProt P11541+P23439)", "T1 construct": "PDE6 can be purified from bovine retina; from tissue; host or cells: bovine retina", "T1 sequence (P11541 2-856 limits assumed)": "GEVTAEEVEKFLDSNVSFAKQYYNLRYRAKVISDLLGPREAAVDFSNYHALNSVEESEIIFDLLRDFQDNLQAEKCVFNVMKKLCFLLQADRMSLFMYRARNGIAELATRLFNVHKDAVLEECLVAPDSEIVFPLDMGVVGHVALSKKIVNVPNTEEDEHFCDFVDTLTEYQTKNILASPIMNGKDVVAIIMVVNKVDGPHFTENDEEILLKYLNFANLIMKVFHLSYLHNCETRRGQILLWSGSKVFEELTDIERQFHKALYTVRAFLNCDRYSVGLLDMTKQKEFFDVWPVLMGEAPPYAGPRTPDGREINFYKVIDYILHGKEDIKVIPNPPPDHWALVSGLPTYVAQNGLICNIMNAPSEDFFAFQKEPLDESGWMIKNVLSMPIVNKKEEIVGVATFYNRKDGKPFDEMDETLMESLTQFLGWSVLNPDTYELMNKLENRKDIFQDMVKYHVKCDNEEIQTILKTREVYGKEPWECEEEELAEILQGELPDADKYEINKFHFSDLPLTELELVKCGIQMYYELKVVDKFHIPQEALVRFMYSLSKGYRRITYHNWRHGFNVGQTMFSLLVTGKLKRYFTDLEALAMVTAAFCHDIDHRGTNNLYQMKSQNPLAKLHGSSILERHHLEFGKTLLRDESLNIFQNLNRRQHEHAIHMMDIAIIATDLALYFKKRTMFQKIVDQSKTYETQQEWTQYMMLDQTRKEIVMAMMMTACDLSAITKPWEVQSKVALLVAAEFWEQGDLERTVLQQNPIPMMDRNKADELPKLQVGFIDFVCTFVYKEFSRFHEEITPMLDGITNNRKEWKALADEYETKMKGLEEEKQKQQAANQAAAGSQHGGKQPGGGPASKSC", "T1 sequence (P23439 2-850 limits assumed)": "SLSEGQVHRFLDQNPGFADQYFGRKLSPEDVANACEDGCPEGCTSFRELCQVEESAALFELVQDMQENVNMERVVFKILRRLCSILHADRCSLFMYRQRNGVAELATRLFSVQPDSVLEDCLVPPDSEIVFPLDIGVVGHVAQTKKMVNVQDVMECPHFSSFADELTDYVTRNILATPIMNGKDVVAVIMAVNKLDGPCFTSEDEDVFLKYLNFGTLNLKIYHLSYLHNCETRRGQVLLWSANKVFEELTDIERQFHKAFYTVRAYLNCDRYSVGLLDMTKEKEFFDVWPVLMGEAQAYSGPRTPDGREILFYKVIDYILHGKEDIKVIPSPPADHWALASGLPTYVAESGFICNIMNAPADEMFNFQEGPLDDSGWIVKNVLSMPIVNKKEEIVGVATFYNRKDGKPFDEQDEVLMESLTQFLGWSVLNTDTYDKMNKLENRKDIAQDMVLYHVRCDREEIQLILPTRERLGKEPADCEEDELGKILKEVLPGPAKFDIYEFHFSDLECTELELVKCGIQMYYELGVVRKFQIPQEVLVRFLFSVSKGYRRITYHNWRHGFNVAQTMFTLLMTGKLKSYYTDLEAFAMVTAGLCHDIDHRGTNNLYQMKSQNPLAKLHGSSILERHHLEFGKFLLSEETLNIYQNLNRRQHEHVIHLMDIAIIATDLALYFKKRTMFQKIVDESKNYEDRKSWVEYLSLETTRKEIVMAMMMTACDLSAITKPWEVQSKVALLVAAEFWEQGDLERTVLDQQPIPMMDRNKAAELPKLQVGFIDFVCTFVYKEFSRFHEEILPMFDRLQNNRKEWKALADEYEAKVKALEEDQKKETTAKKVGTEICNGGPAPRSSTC", "assay": "PDE6 inhibition (FP or SPA general type of assay)", "type": "biochemical", "conditions": "in the particular assays used", "description": "PDE6 can be purified from bovine retina as described by: P. Catty and P. Deterre, “Activation and solubilization of the retinal cGMP-specific phosphodiesterase by limited proteolysis”, Eur. J. Biochem., 1991, 199, 263-269; A. Tar et al. “Purification of bovine retinal cGMP phosphodiesterase”, Methods in Enzymology, 1994, 238, 3-12; and/or D. Srivastava et al. “Effects of magnesium on cyclic GMP hydrolysis by the bovine retinal rod cyclic GMP phosphodiesterase”, Biochem. J., 1995, 308, 653-658.\nThe ability of compounds to inhibit catalytic activity at PDE4B or 4D (human recombinant), PDE3 (from bovine aorta), PDE5 (human recombinant) or PDE6 (from bovine retina) can optionally be determined by Scintillation Proximity Assay (SPA) in a 96-well format.\nTest compounds (as a solution in DMSO, suitably about 2 microlitre (ul) volume of DMSO solution) are preincubated at ambient temperature (room temperature, e.g. 19-23° C.) in Wallac Isoplates (code 1450-514) with PDE enzyme in 50 mM Tris-HCl buffer pH 7.5, 8.3 mM MgCl2, 1.7 mM EGTA, 0.05% (w/v) bovine serum albumin for 10-30 minutes (usually 30 minutes). […] Bound radioactive product is measured using a WALLAC TRILUX 1450 Microbeta scintillation counter. […] Curves are analysed using ActivityBase and XLfit (ID Business Solutions Limited, 2 Ocean Court, Surrey Research Park, Guildford, Surrey GU2 7QB, United Kingdom). […]"}
{"compound": "CCc1nc2c(cnn2CC)c(NC2CCOCC2)c1CNC(=O)c1cc(C)no1", "note": "[Example 1, N-{[1,6-diethyl-4-(tetrahydro-2H-pyran-4-ylamino)-1H-pyrazolo[3,4-b]pyridin-5-yl]methyl}-3-methyl-5-isoxazolecarboxamide]", "values": [{"measurement": "PDE4B pIC50 compared with PDE6 pIC50 (selectivity)", "value": "inhibits PDE4B more strongly than it inhibits PDE3, PDE5 and PDE6"}]}
